Measured values taken from publication PMC7229617, “N-alkylisatin-based microtubule destabilizers bind to the colchicine site on tubulin and retain efficacy in drug resistant acute lymphoblastic leukemia cell lines with less in vitro neurotoxicity” (Cancer Cell International, 2020).

Test system: T1, tubulin
T1 construct: gene TUBA1B; pure tubulin, alpha-beta heterodimer (colchicine site at alpha/beta interface); mixture of brain isotypes
Assay: fluorescence competition (displacement of MTC), Equigra V5.[…] fit
Type: binding
Settings: colchicine site, competitive with MTC; 10 mM phosphate pH 7, 1 mM EDTA, 1.5 mM MgCl2, 0.1 mM GTP, 25 °C; printed exponent ambiguous (10^5 or 10^4), unreliable

For `O=C1C(=O)N(Cc2cccc3ccccc23)c2c(Br)cc(Br)cc21` [N1M-isatin, 5,7-dibromo-N-(naphthalene-1-ylmethyl)isatin], the “Binding affinity (M^-1) ± SEM^a” value was 1.4 ± 0.2 × 10^5(× 10^4).
